# Columns and labels:
# [1] = tested on: subjects with early Parkinson's disease (PD); assay: Example 2: safety and tolerability in the early Parkinson's disease trial; type: in vivo, human; conditions: human, in vivo
# Procedure: (§1) Study Design and Randomization. This example was a single arm futility study designed to assess creatine and minocycline. A placebo arm for calibration was included in the example. Eligible subjects were randomly assigned in a 1:1:1 fashion to receive 1) 10 g/day of creatine monohydrate and placebo minocycline, 2) placebo creatine monohydrate and 200 mg/day of minocycline, or 3) placebo creatine monohydrate and placebo minocycline. The primary futility analysis was at 12 months of follow-up, but each subject was followed for 18 months for additional safety information. Subjects and investigators were kept blinded to treatment group.
# (§2) Dosages. Creatine was administered as 5 g sachets mixed with 8 ounces of liquid taken twice a day and minocycline was administered as 100 mg capsules taken twice a day. Both were taken with meals.
# Outcome measures. The primary, prespecified outcome measure was the change in the total Unified PD Rating Scale (UPDRS) score from baseline to either the time at which there was sufficient disability to warrant symptomatic therapy for PD or 12 months, whichever came first. Disability was assessed by the sight investigator, based on impairment in ambulation, activities in daily living, and occupational status. The mean change in total UPDRS for each treatment group was compared to a prespecified futility threshold of a 30% reduction in the historically derived change in the total UPDRS, which was based on a placebo arm of a previous clinical trial. Tolerability was defined as the proportion of subjects taking study drug for the full 12 months. All […] adverse events (SAEs) were reviewed by the study medical monitor and an independent medical monitor. Both the site investigator and medical monitors assessed the potential relationship between SAEs and study drug.
# Study Procedures. At the screening visit, the purpose and potential risks were explained to potential subjects and each subject gave written consent. […] Blood was obtained for serum chemistry and complete blood count. Participants were reevaluated at 1, 3, 6, 9, and 12 months (±6 days) after the baseline visit using the battery of clinical scales and blood was drawn again at 6 and 12 months.
# cortical thinning in HD = assay: Example 3: morphometric neuroimaging, rate of cortical thinning; type: in vivo, human; conditions: high dose creatine
# Procedure: High dose creatine slows cortical thinning. Morphometric neuroimaging was performed in all subjects. Longitudinal data from up to three years prior to initiating creatine was available on 6 or the 10 subjects. The rate of thinning of cortical regions in HD was modeled based on the longitudinal data and a change in rate was determined for each region of the group while on creatine. […] Creatine reduced the rate of thinning in almost every region, and the rate of change was statistically significant for several regions and amounted to about a 30% slowing. There was no effect on the rate of caudate volume loss (p=0.67), rate of putamen volume loss, or on total brain volume. The lack of an effect on striatal volumes likely reflects the fact that in these individuals, caudate and putamen volumes were already reduced by more than half and the lack of change in whole brain by the fact that small proportion of the brain is represented by the detected change.
# [2] = set-up: species or system human; conditions: in vivo
# Procedure: A two-phase open-label study was conducted to better determine an optimal dose of creatine symptomatic subjects with Huntington's disease. A dose-escalation study (10-40 grams per day) was conducted to determine the maximally tolerated dose (MTD) followed by a de-escalation phase to assess whether brain and serum levels of creatine might be maximal at doses lower than the MTD. Ten subjects were enrolled and followed prospectively for two weeks at each done level increasing in 5-gram increments during dose escalation that lasted 13 weeks. Assessments at each visit included UHDRS, EKG, vital signs, clinical safety and research labs. MRI spectroscopy was conducted prior to baseline at peak done (40 grams) and one month after de-escalation to either 30 or 15 grams daily. To determine an optimal dose, pharmacokinetic as well as clinical data were considered. Once the maximal dose was reached, subjects were assigned one of two lower doses previously taking (15 grams a day (n=5) or 30 grams a day (n=5)). Serum creatine was assessed at baseline, at the end of each 2-week dose escalation step and at the end of the de-escalation phase to assess the correspondence between serum and brain levels of creatine at steady state.
# [3] = tested on: subjects with early Parkinson's disease (PD); assay: Example 2: randomized double-blind futility trial, change in total UPDRS; type: in vivo, human
# Procedure: as §1
# Participants. […] Two of the three cardinal manifestations of PD (tremor, rigidity, and bradykinesia) were required; these findings had to be asymmetric. The diagnosis of PD must have been made within 5 years of randomization. Women of childbearing potential were required to use adequate birth control and have a negative pregnancy test at baseline. Subjects were excluded if they had any secondary causes of parkinsonism, such as drug induced parkinsonism or structural lesions; had atypical parkinsonian syndromes; gait freezing or impairment in postural reflexes; had prior stereotaxis surgery for PD; used creatine, minocycline, or any investigational agent within 90 days prior to randomization; had known hypersensitivity to creatine or minocycline; used CoQ10 in doses greater than 300 mg 90 days prior to randomization; or had any clinically significant medical condition that could interfere with the subject's ability to safely participate in the study or be followed.
# as §2
# Outcome measures. […] Disability was assessed by the sight investigator, based on impairment in ambulation, activities in daily living, and occupational status. […] Both the site investigator and medical monitors assessed the potential relationship between SAEs and study drug. […]
# patients with ALS = assay: Example 4: combined survival analysis of two placebo-controlled trials in amyotrophic lateral sclerosis; type: in vivo, human; conditions: 5 gm per day
# Procedure: The two trials analyzed included a total of 211 patients, 103 creatine-treated and 108 placebo-treated subjects.
# For this analysis, a measure of treatment effect in an estimated pooled hazard ratio was calculated. This measure gives the risk of death for treated subjects divided by the risk of death for controls. Survival analysis by treatment was also performed for each trial separately. A Cox model was used to assess the hazard ratios and survival by treatment in the pooled data, controlling for trial effect and baseline variables. Baseline characteristics of the study populations were also compared. Continuous variables were compared by treatment and trial, using the analysis of variance by putting both treatment and trial as the […] variables. A Cochran-Mantel-Haenszel test statistic was used to compare discrete variables by treatment and trial, controlling for trial and treatment effects, respectively.
smiles,measurement,setting,value
"CN(CC(=O)O)C(=N)N [Creatine, creatine monohydrate]",Patients with dose reductions,[1],8
same,"Effect on rate of caudate volume loss, rate of putamen volume loss, total brain volume",cortical thinning in HD; caudate p=0.67,no effect
same,Slowing of the rate of cortical thinning,"cortical thinning in HD; several cortical regions statistically significant, longitudinal data on 6 of 10 subjects",~30%
same,Dose at which serum creatine levels reached a plateau,[2]; human,30-35 grams/day
same,Brain levels of creatine in the frontal cortex by MRI spectroscopy,[2],continued increases
same,Mean (SD) change in total UPDRS,"[3]; baseline to 12 months or time symptomatic therapy needed, creatine 10 g/day, minocycline 200 mg/day, worst change score imputed",5.6 (8.69)
same,Futility analysis outcome,[3]; threshold 7.46 (30% less than 10.65 DATATOP historical progression),could not be rejected as futile
same,Improvement of median survival over placebo,patients with ALS; pooled data,two-to-three
same,"Adjusted hazard ratio, creatine group relative to placebo group","patients with ALS; pooled data of two trials, Cox model, 95% confidence interval 0.11 to 1.04, p=0.059",0.34
same,Median survival,"patients with ALS; pooled data, placebo 27 months",87 months
same,"Hazard ratio, homogeneity of effect between trials","patients with ALS; p=0.062, 95% confidence interval 0.11 to 1.06",0.34
